{"source": "BindingDB's records for doi:10.1021/jm300025r", "about": "(Astrazeneca, 2012)", "key": {"[1]": {"experiment": "Inhibition of CHK1 in human HT29 cells assessed as abrogation of camptothecin induced check point"}, "[2]": {"experiment": "Inhibition of CHK1 in human HT29 cells assessed as check point abrogation"}}}
{"smiles": "NC(=O)Nc1sc(-c2ccc(F)cc2)cc1C(=O)N[C@H]1CCCNC1", "note": "[(S)-1-(5-(4-fluorophenyl)-3-(piperidin-3-ylcarbamoyl)thiophen-2-yl)urea]", "values": [{"measurement": "EC50", "setting": "[1]", "value": 30, "unit": "nM"}, {"measurement": "EC50", "setting": "[2]", "value": 600, "unit": "nM"}]}
{"smiles": "N#Cc1ccc(-c2cc(NC(N)=O)c(C(=O)N[C@H]3CCCNC3)s2)cc1", "values": [{"measurement": "EC50", "setting": "[1]", "value": 30, "unit": "nM"}, {"measurement": "EC50", "setting": "[2]", "value": 600, "unit": "nM"}]}
{"smiles": "NC(=O)Nc1cc(-c2ccccc2F)sc1C(=O)N[C@H]1CCCNC1", "values": [{"measurement": "EC50", "setting": "[1]", "value": 20, "unit": "nM"}, {"measurement": "EC50", "setting": "[2]", "value": 2200, "unit": "nM"}]}
{"smiles": "NC(=O)Nc1sc(-c2ccc(F)cc2F)cc1C(=O)N[C@H]1CCCNC1", "values": [{"measurement": "EC50", "setting": "[1]", "value": 190, "unit": "nM"}, {"measurement": "EC50", "setting": "[2]", "value": 1400, "unit": "nM"}]}
{"smiles": "NC(=O)Nc1cc(-c2cc(F)cc(F)c2)sc1C(=O)N[C@H]1CCCNC1", "values": [{"measurement": "EC50", "setting": "[1]", "value": 60, "unit": "nM"}, {"measurement": "EC50", "setting": "[2]", "value": 2500, "unit": "nM"}]}
{"smiles": "NC(=O)Nc1sc(-c2ccc(Cl)c(Cl)c2)cc1C(=O)N[C@H]1CCCNC1", "values": [{"measurement": "EC50", "setting": "[1]", "value": 150, "unit": "nM"}, {"measurement": "EC50", "setting": "[2]", "value": 5700, "unit": "nM"}]}
{"smiles": "N#Cc1ccc(-c2cc(C(=O)N[C@H]3CCCNC3)c(NC(N)=O)s2)cc1", "note": "[(S)-1-(5-(4-cyanophenyl)-3-(piperidin-3-ylcarbamoyl)thiophen-2-yl)urea]", "values": [{"measurement": "EC50", "setting": "[1]", "value": 8, "unit": "nM"}, {"measurement": "EC50", "setting": "[2]", "value": 1700, "unit": "nM"}]}
{"smiles": "NC(=O)Nc1sc(-c2cccc(Cl)c2)cc1C(=O)N[C@H]1CCCNC1", "note": "[1-(3-((S)-piperidin-3-ylcarbamoyl)-5-(3-chlorophenyl)thiophen-2-yl)urea]", "values": [{"measurement": "EC50", "setting": "[1]", "value": 40, "unit": "nM"}, {"measurement": "EC50", "setting": "[2]", "value": 1200, "unit": "nM"}]}
{"smiles": "NC(=O)Nc1cc(-c2ccc(Cl)c(Cl)c2)sc1C(=O)N[C@H]1CCCNC1", "values": [{"measurement": "EC50", "setting": "[1]", "value": 200, "unit": "nM"}, {"measurement": "EC50", "setting": "[2]", "value": 5800, "unit": "nM"}]}
{"smiles": "NC(=O)Nc1cc(-c2ccc(F)cc2)sc1C(=O)N[C@H]1CCCNC1", "values": [{"measurement": "EC50", "setting": "[1]", "value": 20, "unit": "nM"}, {"measurement": "EC50", "setting": "[2]", "value": 13000, "unit": "nM"}]}
{"smiles": "NC(=O)Nc1sc(-c2cc(F)cc(F)c2)cc1C(=O)N[C@H]1CCCNC1", "values": [{"measurement": "EC50", "setting": "[1]", "value": 30, "unit": "nM"}, {"measurement": "EC50", "setting": "[2]", "value": 1500, "unit": "nM"}]}
{"smiles": "NC(=O)Nc1sc(-c2ccccc2F)cc1C(=O)N[C@H]1CCCNC1", "note": "[1-(3-((S)-piperidin-3-ylcarbamoyl)-5-(2-fluorophenyl)thiophen-2-yl)urea]", "values": [{"measurement": "EC50", "setting": "[1]", "value": 80, "unit": "nM"}, {"measurement": "EC50", "setting": "[2]", "value": 1060, "unit": "nM"}]}
{"smiles": "N#Cc1cccc(-c2cc(C(=O)N[C@H]3CCCNC3)c(NC(N)=O)s2)c1", "values": [{"measurement": "EC50", "setting": "[1]", "value": 940, "unit": "nM"}, {"measurement": "EC50", "setting": "[2]", "value": "> 13000", "unit": "nM"}]}
{"smiles": "NC(=O)Nc1cc(-c2ccc(F)cc2F)sc1C(=O)N[C@H]1CCCNC1", "values": [{"measurement": "EC50", "setting": "[1]", "value": 20, "unit": "nM"}, {"measurement": "EC50", "setting": "[2]", "value": 1100, "unit": "nM"}]}
{"smiles": "NC(=O)Nc1cc(-c2cccc(Cl)c2)sc1C(=O)N[C@H]1CCCNC1", "values": [{"measurement": "EC50", "setting": "[1]", "value": 10, "unit": "nM"}, {"measurement": "EC50", "setting": "[2]", "value": 700, "unit": "nM"}]}
{"smiles": "NC(=O)Nc1sc(-c2cccc(F)c2F)cc1C(=O)N[C@H]1CCCNC1", "values": [{"measurement": "EC50", "setting": "[1]", "value": 100, "unit": "nM"}, {"measurement": "EC50", "setting": "[2]", "value": 1800, "unit": "nM"}]}
{"smiles": "N#Cc1cccc(-c2cc(NC(N)=O)c(C(=O)N[C@H]3CCCNC3)s2)c1", "values": [{"measurement": "EC50", "setting": "[1]", "value": 40, "unit": "nM"}, {"measurement": "EC50", "setting": "[2]", "value": 1900, "unit": "nM"}]}
{"smiles": "NC(=O)Nc1cc(-c2ccccc2)sc1C(=O)N[C@H]1CCCNC1", "values": [{"measurement": "EC50", "setting": "[1]", "value": 20, "unit": "nM"}, {"measurement": "EC50", "setting": "[2]", "value": 590, "unit": "nM"}]}
{"smiles": "NC(=O)Nc1sc(-c2cccc(F)c2)cc1C(=O)N[C@H]1CCCNC1", "note": "[1-(3-((S)-piperidin-3-ylcarbamoyl)-5-(3-fluorophenyl)thiophen-2-yl)urea]", "values": [{"measurement": "EC50", "setting": "[1]", "value": 20, "unit": "nM"}, {"measurement": "EC50", "setting": "[2]", "value": 840, "unit": "nM"}]}
{"smiles": "NC(=O)Nc1cc(-c2cccc(F)c2F)sc1C(=O)N[C@H]1CCCNC1", "values": [{"measurement": "EC50", "setting": "[1]", "value": 60, "unit": "nM"}, {"measurement": "EC50", "setting": "[2]", "value": 1500, "unit": "nM"}]}
